Patent US6355619B1, “Peptide tumor cell growth inhibitors” (Board of Regents, The University of Texas System, priority 1996, dated 2002)
Where two headings read alike, the source gives them in different places.

Columns and labels:
A375SM melanoma cells = assay: Tumor cell growth, A375SM; type: cell-based
C8161 melanoma cells = assay: Tumor cell growth, C8161; type: cell-based
WM115 melanoma cells = assay: Tumor cell growth, WM115; type: cell-based
[1] = system: SP2/o mouse myeloma cell lines; assay: Growth of SP2/o myeloma cells stimulated by murine interleukin-6; type: cell-based
Hs 294T = details: 16 hr
Experimental: The cell lines (4×10^5 cells/well) in RPMI-1640 medium containing 10% fetal bovine serum were incubated with 10 μCi of Na2^51CrO4 (DuPont NEN Co.) for 60 min at 37° C. in a 24 well tissue culture plate. The cells were washed 3 times and then incubated in cell culture medium for 30 min at 37° C. to allow spontaneous lysis of marginally viable cells. […] The cells were cultured for 16 hr at 37° C. and then the radioactivity in the supernatants was counted in a gamma radiation spectrometer. Quadriplicate wells received cell culture medium alone or 2% SDS to determine spontaneous and maximum release, respectively. The percentage lysis was calculated by using the following formula: [formula]

Hs 294T melanoma cells = assay: Cell growth assay, Hs 294T; type: cell-based, human
Experimental: FIG. 15A. The effect of Antileukinate on the growth of melanoma cells. Melanoma cell lines and a control liver cancer cell line (2×10^4 cells/well) in 500 μl were cultured in a 24 well tissue culture plate in the presence of various concentrations of Antileukinate for 3 d. The culture media were changed to fresh media containing the same concentration of Antileukinate every 24 hr during the incubation period. After incubation, the cells were collected and the cell number was counted using a hemocytometer. Hs 294 T cell line. Analysis of variance was used for multiple comparison.
The cell lines (2×10^4 cells/well) in 500 μl cell culture medium were grown in 24 well tissue culture plates. After the cells adhered to the plate, the supernatants were aspirated and 500 μl of media containing various concentrations of Antileukinate were added to the wells. The cells were cultured for period indicated in the text. The culture media were changed to fresh media every 24 hr. After incubation, the cells were detached with trypsin-EDTA solution (Life Technologies Inc., Gaithersburg, Md., containing 0.05% of trypsin and 0.53 mM of EDTA in Hanks Balanced Salt Solution without Ca^2+ and Mg^2+) and the cell number was counted using a hemocytometer.

[2] = system: C5a-stimulated neutrophil enzyme release; assay: β-glucuronidase release from neutrophils stimulated by C5a; type: cell-based, human; details: 100 nM C5a
Experimental: (§1) FIG. 8. The Effect of Ac-RRWWCR-NH2 (SEQ ID NO:1) on β-glucuronidase Release. Neutrophils pretreated with cytochalasin B were incubated with 100 nM IL-8 (●), 100 nM fMLP (▪), 100 nM C5a (_) or 100 nM leukotriene B4 ? or without any stimulant (◯) in the presence of increasing concentration of Ac-RRWWCR-NH2 (SEQ ID NO:1) for 30 min at 37° C. β-glucuronidase activity of supernatants were measured using phenolphthalein-glucuronic acid as substrate. Analysis of variance was used for multiple comparison.
(§2) Neutrophil enzyme release was studied by a modification of the method of Goldstein and colleagues (Goldstein et al., 1973). Cytochalasin B (Sigma Chemical Co.) was stored in dimethyl sulfoxide at a concentration of 5 mg/ml and was diluted to a concentration of 50 μg/ml in Hank's Balanced Salt Solution (HBSS) immediately before use. Cytochalasin B, 200 μl, was added to 1 ml of suspension of neutrophils, 6.25×10^6 cells/ml in HBSS, to achieve a final cytochalasin B concentration of […]. The solution was then incubated in 96 well plates at room temperature for 10 min. The stimulant, 100 μl, was added, and this cell suspension was incubated for 30 min at 37° C. The plates were centrifuged and 100 μl of supernatant was removed. […] After 16 hr incubation at 37° C., 200 μl of 0.2 M Glycine in 0.2 M NaCl, pH10.4 was added to each well and OD540 was measured as the enzyme activity.

[3] = system: MGSA/GROα receptors on Hs 294T melanoma cells; assay: Binding of 125I-MGSA/GROα to Hs 294T melanoma cells; design: species or system human; details: 1 nM 125I-labeled MGSA/GROα, read-out: EC50, inhibition of MGSA/GROα binding
Experimental: FIG. 11A. The binding of ^125I-labeled MGSA/GROα to melanoma cell lines, Hs 294T and RPMI-7951. The melanoma cells, 1×10^5, were incubated with 1 nM ^125I-MGSA/GROα in the presence of various concentrations of unlabeled MGSA/GROα. Binding inhibition curve with Hs 294T (closed circles) and RPMI-7951 (open circles). The lines shown in the graph are the best fit curves calculated using the London II computer program.
FIG. 13. The effect of Antileukinate on the binding of radiolabeled MGSA/GROα to the melanoma cell lines. The melanoma cells, Hs 294T (closed circles) and RPMI-7951 (open circles), were incubated with 1 nM ^125I-MGSA/GROα in the presence of different concentrations of Antileukinate. The lines shown in the graph are the best fit curves calculated using the London II computer program.
Recombinant human MGSA/GROα and IL-8 were purchased form Pepro Tech Inc. (Rocky Hill, N.J.) and radioactively labeled using ^125I-labeled Bolton-Hunter reagent (DuPont-NEN, Wilmington, Del.) (Bolton and Hunter, 1973). The labeled proteins were isolated using Sephadex G-25 column (Column PD-10, Pharmacia) pre-equilibrated with PBS containing 0.1% gelatin and stored at −70° C. after the addition of 1% bovine serum albumin.
Binding studies with melanoma cell lines were performed by the method of Horuk and colleagues (Horuk et al., 1993). Briefly, the cells (1×10^5 cells/well) in 24-well plates were washed two times with Hank's Balanced Salt Solution and incubated with ^125I-labeled MGSA/GROα or IL-8 in the buffer containing 1% bovine serum albumin at 4° C. for 3 hr. The incubation was terminated by vacuum aspiration of the supernatant. The cells were washed three times in binding buffer, solubilized by the addition of 200 μl of 1% SDS, and transferred to vials for counting. The non-specific binding was estimated by measuring the binding in the presence of 100-fold excess of non-labeled ligand. The binding parameters were calculated using the Lundon II computer program (Lundon Software Inc., Chagrin Falls, Ohio).

neutrophils = assay: β-glucuronidase release from neutrophils without stimulant; type: cell-based, human; details: without any stimulant
Experimental: as §1, §2

## RRWWCR [Ac-RRWWCR-NH2]
A375SM melanoma cells
  effect on cell growth: suppresses the growth
C8161 melanoma cells
  effect on cell growth: suppresses the growth
WM115 melanoma cells
  effect on cell growth: suppresses the growth
[1]
  effect on growth of SP2/o mouse myeloma cell lines: did not affect the growth
Hs 294T; 1 μM peptide
  % cell lysis: −4.0 ± 5.2%
Hs 294T; 5 μM peptide
  % cell lysis: −3.2 ± 7.2%
Hs 294T; 20 μM peptide
  % cell lysis: −1.6 ± 3.7%
Hs 294T; 100 μM peptide
  % cell lysis: 2.4 ± 7.9%
Hs 294T melanoma cells; 100 μM
  cell growth at 100 μM peptide: suppressed the cell growth almost completely
Hs 294T melanoma cells; 72 hr
  peptide concentration significantly inhibiting growth: 10 µM
Hs 294T melanoma cells; 72 hr, medium changed every 24 hr, read-out: ED50, cell growth inhibition
  EC50: 18 µM
[2]
  effect on enzyme release stimulated by C5a: did not affect the enzyme release
[3]
  EC50: ~1 µM
neutrophils
  stimulation of β-glucuronidase release by the peptide itself: did not stimulate β-glucuronidase release
